Assay results as given in patent US20260373226A1, “METHODS AND COMPOSITIONS FOR THE TREATMENT OF NEURODEGENERATIVE DISEASE” (Stealth BioTherapeutics Inc., priority 2022, published 2026).

Legend:
[1] = Steady state PK in plasma, CSF, brain after 5 daily s.c. doses in rats; assay type: in vivo, male Sprague-Dawley rat; conditions: rat, 10 mg/kg s.c., 5 daily doses
Protocol: Pharmacokinetic profile of SBT-272 in rat plasma, CSF, and brain (for FIG. 5A). The objective of this study was to evaluate the pharmacokinetics of SBT-272 in microdialysate from the prefrontal cortex (PFC) and striatum (STR), and in plasma and CSF of freely-moving adult male Sprague-Dawley rats. The experiments and the analysis were performed at Charles River Laboratories Den Bosch B.V., location Groningen (Groningen, the Netherlands).
Test items. Test compound was SBT-272. The molecular weight of SBT-272 is 607.75 g/mol in the salt-free form, and 717.13 g/mol in the salt form.
In vivo experiments: Animals. A total of six male Sprague-Dawley rats (309-329 g; CRL Sulzfeld, Germany) were used for the experiments. The experiments were conducted in strict accordance with the Guide for the Care and Use of Laboratory Animals (National Research Council 2011) and were in accordance with European Union directive 2010/63 and the Dutch law. The experiments were carried out under license number AVD23600202011187, issued by the national committee for licensing of animal experiments (Centrale Commissie Dierproeven) and were approved by the Animal Care and Use Committee (Instantie voor Dierenwelzijn) of Charles River Discovery Groningen.
Following arrival, animals were housed in groups of 5 in polycarbonate cages (56 X 33×20 cm) with wire mesh top in a temperature (22±2 °C) and humidity (55±15%) controlled environment on a 12 hour light cycle (07.00-19.00 h). After surgery, animals were housed individually (cages 30×30×40 cm). Standard diet (A04 mod. R/M-M, Ssniff, Germany) and domestic quality mains water were available ad libitum.
In vivo experiments: Surgery. Animals were anesthetized using isoflurane (2% and 800 mL/min 02). Before surgery, carprofen (5 mg/kg, s.c.) was administered for peri- and post-operative analgesia. A mixture of bupivacaine and epinephrine was applied to the incision site and periosteum of the skull for local analgesia.
In vivo experiments: Microdialysis probe implantation. Each animal was placed in a stereotaxic frame (Kopf instruments, USA). […]

[2] = Brain exposure PK in rats after single SC dose; assay type: in vivo; conditions: rat; single 5 mg/kg SC
Protocol: FIG. 2A is a chart showing the in vivo pharmacokinetic (PK) and pharmacodynamic (PD) response to SBT-272 brain exposure in rats. Rat brain SBT-272 concentrations up to 36 hours after a single dose of SBT-272 (5 mg/kg; subcutaneous (SC); n=8 rats per time-point).
Evaluation of SBT-272 exposure in brain tissues after subcutaneous dosing. Brain tissues were collected, at various time points (see FIG. 2A) following a single 5 mg/kg subcutaneous (SC) administration of SBT-272 (n=8 rats per time point).
Briefly, issues samples were weighed in 2 mL microcentrifuge tubes (micro tube 2 mL, low protein binding, with screw cap, REF 72.694.600 (Sarstedt, Germany), weight of tissues was recorded in the study file. The centrifuge tubes were kept on ice throughout the procedure. Four times tissue weight purified deionized water with 0.1% formic acid (v/w) was added. Two metal beads were placed in each microcentrifuge tube (Metal Bead Lysing Matrix Bulk, MP, USA). Brain tissues were homogenized using Bead Ruptor (Omni International, USA) for 60 seconds using a speed of […] per cycle. Homogenates (96 μL) were transferred to […] microcentrifuge tubes with surface that minimized binding (REF 04-212-3500, Nerbe Plus, Germany). Homogenates were frozen and kept at −80 °C until sample extraction for LC/MS/MS analysis. Two samples (twice 96 μL) collected, one kept if repeat required. […]

Compound: Cc1cc(O)cc(C)c1C[C@H](NC(=O)[C@H](N)CCCNC(=N)N)C(=O)N[C@@H](CCCCN)c1nc(Cc2ccccc2)no1 [SBT-272, (R)-2-amino-N—((S)-1-(((S)-5-amino-1-(3-benzyl-1,2,4-oxadiazol-5-yl)pentyl)amino)-3-(4-hydroxy-2,6-dimethylphenyl)-1-oxopropan-2-yl)-5-guanidinopentanamide]
- Kp ([1]; brain, sc, read-out: brain:plasma ratio): 178
- brain:CSF ratio [1]: 182
- plasma:CSF ratio [1]: 1.03
- brain penetration / biodistribution across the blood-brain-barrier [2]: brain penetrant and exhibited optimized biodistribution across the blood-brain-barrier
